How the values were obtained:
[1] = system: α1β3γ2L GABAA receptors, bulky mutation at α1M236; set-up: key: +: Mutant-function studies are deemed positive when bulky mutations (mostly tryptophans) at the site significantly reduce positive modulation by anesthetics; -: Negative results are indicated by “–“ symbols; conditions: cited from earlier work
[2] = system: α1β3γ2L GABAA receptors, bulky mutation at γ2S301; set-up: method as in PMID 30696720; key: +: Mutant-function studies are deemed positive when bulky mutations (mostly tryptophans) at the site significantly reduce positive modulation by anesthetics; -: Negative results are indicated by “–“ symbols; conditions: cited from earlier work
[3] = system: α1β3γ2L GABAA receptors, bulky mutation at α1L232; set-up: key: +: Mutant-function studies are deemed positive when bulky mutations (mostly tryptophans) at the site significantly reduce positive modulation by anesthetics; -: Negative results are indicated by “–“ symbols; conditions: cited from earlier work
α1β2N265Cγ2L receptors = conditions: at the tested concentration; etomidate binds extremely weakly; cited from earlier work
[4] = target: T1, α1β3γ2S301C GABAA receptors (Homo sapiens, UniProt P14867+P18507+P28472, S340C); assay: Drug protection from pCMBS modification (SCAMP); assay type: cell-based; set-up: key: +: Mutant-function studies are deemed positive when bulky mutations (mostly tryptophans) at the site significantly reduce positive modulation by anesthetics; -: Negative results are indicated by “–“ symbols; conditions: results of this study (*)
T1 construct: expressed in transfected cells; host or cells: Xenopus oocytes injected with capped mRNAs mixed 1α:1β:5γ
T1 sequence (P14867 28-456): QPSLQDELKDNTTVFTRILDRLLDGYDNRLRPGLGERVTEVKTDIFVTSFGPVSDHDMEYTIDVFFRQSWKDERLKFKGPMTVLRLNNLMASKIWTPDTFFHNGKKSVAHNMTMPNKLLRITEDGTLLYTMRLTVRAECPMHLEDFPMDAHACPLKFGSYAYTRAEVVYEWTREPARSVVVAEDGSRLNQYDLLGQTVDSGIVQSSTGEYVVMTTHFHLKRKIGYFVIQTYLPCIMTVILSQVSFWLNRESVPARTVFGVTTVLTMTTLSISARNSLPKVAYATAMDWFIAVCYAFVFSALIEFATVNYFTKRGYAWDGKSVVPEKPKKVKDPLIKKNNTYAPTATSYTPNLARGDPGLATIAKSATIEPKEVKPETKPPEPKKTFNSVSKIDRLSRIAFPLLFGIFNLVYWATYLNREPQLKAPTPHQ
T1 sequence (P28472 26-473): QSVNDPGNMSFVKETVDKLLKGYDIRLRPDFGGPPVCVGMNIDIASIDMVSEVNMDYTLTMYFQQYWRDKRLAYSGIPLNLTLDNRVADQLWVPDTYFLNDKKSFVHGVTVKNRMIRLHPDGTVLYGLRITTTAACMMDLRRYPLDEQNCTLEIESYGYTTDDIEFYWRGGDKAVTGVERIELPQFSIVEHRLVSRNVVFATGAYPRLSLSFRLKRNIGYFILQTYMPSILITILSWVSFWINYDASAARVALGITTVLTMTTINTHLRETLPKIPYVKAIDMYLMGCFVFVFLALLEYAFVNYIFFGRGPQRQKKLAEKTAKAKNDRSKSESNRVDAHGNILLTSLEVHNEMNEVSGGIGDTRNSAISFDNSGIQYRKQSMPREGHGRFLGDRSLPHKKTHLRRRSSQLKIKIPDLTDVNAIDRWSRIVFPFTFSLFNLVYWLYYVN
T1 sequence (P18507 40-475 S340C): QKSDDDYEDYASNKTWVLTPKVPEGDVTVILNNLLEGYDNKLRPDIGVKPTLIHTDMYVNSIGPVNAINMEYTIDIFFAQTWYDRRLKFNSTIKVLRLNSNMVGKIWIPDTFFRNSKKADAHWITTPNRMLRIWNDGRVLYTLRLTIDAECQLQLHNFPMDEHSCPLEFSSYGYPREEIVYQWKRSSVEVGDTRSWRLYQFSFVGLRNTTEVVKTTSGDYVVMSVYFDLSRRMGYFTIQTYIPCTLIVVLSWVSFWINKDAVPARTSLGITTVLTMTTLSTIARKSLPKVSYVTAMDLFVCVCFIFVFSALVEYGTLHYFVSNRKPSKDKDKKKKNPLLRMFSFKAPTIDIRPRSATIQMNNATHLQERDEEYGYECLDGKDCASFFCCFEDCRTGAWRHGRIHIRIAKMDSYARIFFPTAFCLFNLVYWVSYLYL
Method: Experiments were performed in ND-96 buffer at room temperature (20–22°C). Oocytes were placed in a low-volume (30µl) flow chamber and impaled with borosilicate microelectrodes filled with 3M KCl (resistance 0.5–3 MΩ) and voltage-clamped at −50 mV (model OC-725C; Warner Instruments, Hamden, CT, USA). Superfusate solutions in ND-96 were delivered at 2 ml/min from glass syringe reservoirs via computer-controlled valves (VC-8; Warner Instruments), a micro-manifold (ALA-VM8; ALA Scientific Instruments, Farmingdale, NY, USA), and PTFE tubing. Currents were digitized at 200 Hz on a computer running ClampEx v8.0 software (Molecular Devices, San Jose, CA, USA). Digitized traces were filtered with a 10-Hz low-pass Bessel function, leak corrected and analyzed for peak amplitude off-line using Clampfit v8 software (Molecular Devices).
Drug protection from pCMBS modification was assessed under pCMBS exposure conditions that produced approximately half of the maximal modification ratio for each mutant receptor, and a least a value of 3. This approach balanced the magnitude of functional modification signals (smaller with less pCMBS exposure) against the challenge of using a reversibly bound ligand to competitively block an irreversible covalent cysteine-modifying reaction. […] Each oocyte was used in a single SCAMP experiment. […] Etomidate was used as a positive control for anesthetic protection in α1M236C and β3M286C mutants and as a negative control in α1S270C, α1A291C, β3L231C, γ2S301C, γ2I242C, and γ2L246C mutants. R-mTFD-MPAB was used as a positive control in α1S270C, α1A291C, β3L231C, and γ2LS301C mutants and as a negative control in α1M236C and β3M286C mutants. For each cysteine mutant and protective drug combination, five oocytes were studied.
Non-linear least squares fits and statistical analyses were performed in Prism 10.4.0. (GraphPad Software, San Diego, CA, USA). […] Protection (steric inhibition of pCMBS modification) was inferred when anesthetics produced significant reductions in modification ratios relative to control (no anesthetic) values. The statistical significance threshold was p < 0.05.

SMILES	Mutant-function result, α1– (M1) M236 [1]	Mutant-function result, γ2+ (M2, M3) S301 [2]	Mutant-function result, α1– (M1) L232 [3]	SCAMP protection at β N265C (α1β2N265Cγ2L receptors)	SCAMP result, γ2+ (M2, M3) S301 [4]
C=CCC1(c2cccc(C3(C(F)(F)F)N=N3)c2)C(=O)NC(=O)N(C)C1=O (stereo not drawn) [R-mTFD-MPAB, R-5-allyl-1-methyl-5-(m-trifluoromethyl-diazirynylphenyl) barbituric acid]	-^[9]	+^[13]	-^[9]		
CCOC(=O)c1cncn1[C@H](C)c1ccccc1 [etomidate, R-etomidate]	+^[9], [12]	-^[13]	+^[9, 12]	fails to protect	-*
CC(C)c1cc(C2(C(F)(F)F)N=N2)cc(C(C)C)c1CO [pTFD-di-iPr-BnOH]					-*
